Data from US20250161338A1, “Compounds for Anti-aging Intervention” (AGENCY FOR SCIENCE, TECHNOLOGY AND RESEARCH, priority 2022, published 2025).

Tests used:
[1] = test system: prototrophic yeast strain (CEN.PK113-7D); assay: Propidium iodide fluorescence-based CLS method in yeast (incl. high-throughput screening); format: cell-based, Saccharomyces cerevisiae; conditions: concentration tested 100 μM; for Yeast CLS increase: Yes/No call of the screen; for PI intensity: solvent DMSO or water, chronological age point Day 7 (72 h growth = Day 1), lower = more survival;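 for PI intensity: untreated reference is eight DMSO and water control wells per plate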
Method: Yeast strain was recovered from frozen glycerol stock at 30° C. on YPD agar medium. Yeast was left to propagate in SD medium overnight at 30° C. with shaking at 220 revolutions per minute (rpm). Cells propagated overnight were diluted to a starting optical density at 600 nm (OD600) of approximately 0.2 in fresh SD medium to begin the chronological lifespan (CLS) experiments.
(§1) CLS experiments were performed in 96-well plates with 200 μL yeast culture. Cellular inoculums were transferred into 96-well plates containing serially double-diluted concentrations (0 to 10 nM) of rapamycin. Cellular inoculum was transferred into 96-well plates containing serially double-diluted concentrations (0 to 8 mM) of 2,5-anhydro-D-mannitol, D-fructose, D-mannitol, D-maltose, and D-sorbitol in SD medium. Cells were incubated at 30° C., and the growth was measured at different time points. […] Cell survival was quantified at various age time points by three different approaches: (i) PI fluorescence-based method, (ii) outgrowth in YPD liquid medium, and (iii) spotting assay (FIG. 1).
Yeast cells (40 μL) from different age time points were transferred into a second 96-well plate (different to the 96-well plate in which the CLS analysis as outlined above was performed). Cells were washed and incubated in 100 μL 1×phosphate buffered saline (PBS) with propidium iodide (PI) (5 μg/mL) for 15 minutes in the dark. Positive and negative control samples were included for quantitative analysis. Positive control (cells boiled at 100° C. for 15 minutes) was PI-stained and processed in the same 96-well plate. Samples without PI-stained cells served as the negative control. After incubation, cells were washed and resuspended in 100 μL PBS. The fluorescence reading of the samples (excitation and emission wavelengths at 535 nm and 617 nm, respectively) and OD600 were measured with a microplate reader (BioTek, Winooski, Vermont, United States). The fluorescence intensity of each sample was normalized with OD600. The background fluorescence signal of the unstained negative sample was subtracted from the normalized fluorescence intensity of each sample. The obtained fluorescence intensity of the positive control (boiled dead cells) was considered 0% cell survival. Cell death was validated by allowing the boiled dead cells to grow in medium. Cell survival at different age time points of samples were calculated by normalizing the fluorescence intensity with positive control sample (boiled cells).
High-throughput screening of various chemicals was tested using the same protocol for the propidium iodide fluorescence-based method as described above. The prototrophic yeast strain (CEN.PK113-7D) was grown in the synthetic defined medium with different chemical reagents at their respective single testing concentration (Table 1) in addition to eight replicates of DMSO and water controls in 96-well plates at 30° C.

[2] = test system: prototrophic yeast strain (CEN.PK113-7D); assay: Yeast outgrowth in YPD liquid medium (CLS of aged cells); format: cell-based, Saccharomyces cerevisiae; conditions: for Outgrowth: concentration tested 100 μM, OD600 nm after 24 h in YPD at 30° C., age point day 14; for aged cell survival in yeast: various concentrations, outgrowth relative to Day 2 (FIGS. 22A to D)
Method: as §1
Outgrowth (OD600) of aged cells was measured by the microplate reader. Quantification of cell survival for each age point was determined as relative to Day 1 (considered 100% cell survival). This quantification was performed by using the formula,
[formula] • where OutgrowthDay n refers to the OD600 nm absorbance reading recorded on a specific day, OutgrowthDay 1 refers to the OD600 nm absorbance reading recorded on the first day where 100% cell survival is assumed.
The CLS of the aged cells was further determined by the yeast outgrowth in YPD liquid medium method as described above. […] At chronological age point day 14, 3-μL of culture were transferred to a second 96-well plate containing 200 μL YPD medium.

| Molecule | Yeast CLS increase [1] | PI intensity [1] | Outgrowth [2] | aged cell survival in yeast [2] |
| --- | --- | --- | --- | --- |
| C#CC1(O)CC[C@H]2[C@@H]3CCC4=CC(=O)CC[C@@H]4[C@H]3CC[C@@]21CC (mixture of isomers) [Norgestrel, reference compound] | No | 75,338.8 | 0.1 | – |
| O=C(O)C(O)Cc1ccccc1 (racemic) [DL-3-Phenyllactic acid] | No | 65,266.9 | 0.1 | – |
| C[S+](C)CCC(N)C(=O)O.[Cl-] (racemic) [DL-Methionine methylsulfonium (chloride)] | No | 66,281.7 | 0.1 | – |
| CC(C)(CO)C(O)C(=O)NCCCO (racemic) [DL-Panthenol] | No | 71,468.6 | 0.1 | – |
| NC(CO)C(=O)O (racemic) [DL-Serine] | Yes | 33,155.7 | 1.1 | – |
| O=C[C@H](O)[C@H](O)[C@H](O)CO (single isomer, unassigned) [D-Ribose(mixture of isomers)] | No | 60,023.1 | 0.1 | – |
| O=C(O)c1ccc(O)cc1O [2,4-Dihydroxybenzoic acid] | No | 76,326.3 | 0.1 | – |
| O=C(O)c1ccco1 [2-Furoic acid] | No | 72,748.2 | 0.1 | – |
| Oc1ccc2ccccc2c1 [2-Naphthol] | No | 72,298.9 | 0.1 | – |
| CCCC(=O)C(=O)O [2-Oxovaleric acid] | No | 61,246.4 | 0.1 | – |
| CC(C(=O)O)c1ccccc1 (stereo not shown) [2-Phenylpropionic acid] | No | 66,998.4 | 0.1 | – |
| Nc1ncnc2c1ncn2[C@H]1C[C@H](O)[C@@H](CO)O1 [2′-Deoxyadenosine] | No | 70,796.4 | 0.1 | – |
| COc1ccc(C=CC(=O)O)cc1OC [3,4-Dimethoxycinnamic acid] | No | 70,914.2 | 0.1 | – |
| COc1ccc(CC(=O)O)cc1OC [3,4-Dimethoxyphenylacetic acid] | No | 70,394.7 | 0.1 | – |
| O=C(O)c1cc(O)cc(O)c1 [3,5-Dihydroxybenzoic acid] | No | 59,369.7 | 0.1 | – |
| N[C@@H](Cc1ccc(O)c(Cl)c1)C(=O)O [3-Chloro-L-tyrosine] | No | 67,122.0 | 0.1 | – |
| CCc1ccc(O)cc1 [4-Ethylphenol] | No | 58,041.7 | 0.1 | – |
| O=c1[nH]cc(F)c(=O)[nH]1 [5-fluorouracil, reference compound] | – | – | – | survived longer as compared to those without treatment |
| CC(CCC(=O)NCC(=O)O)C1CCC2C3CCC4CC(O)CCC4(C)C3CC(O)C12C (stereo not shown) [Glycodeoxycholic Acid] | – | 68,981.6 | – | – |
| COc1c(O)cc(O)c2c(=O)cc(-c3ccccc3)oc12 [Wogonin] | No | 76,348.2 | – | – |
| CC(C)c1c(C(=O)Nc2ccccc2)c(-c2ccccc2)c(-c2ccc(F)cc2)n1CC[C@@H](O)C[C@@H](O)CC(=O)O [atorvastatin, reference compound] | – | – | – | survived longer as compared to those without treatment |
| CN(Cc1cnc2nc(N)nc(N)c2n1)c1ccc(C(=O)N[C@@H](CCC(=O)O)C(=O)O)cc1 [methotrexate, reference compound] | – | – | – | survived longer as compared to those without treatment |
| hemin [reference compound] | – | – | – | survived longer as compared to those without treatment |
